According to patent US6558900B2, “Regulation of apoptosis and in vitro model for studies thereof” (Emory University, priority 1996, dated 2003):

Assays:
CPP32 [1] = experiment: Reconstitution of dATP-dependent CPP32 activation in HeLa S-100 immunodepleted of cytochrome c; assay type: biochemical, human
Experimental: Cytochrome c present in the HeLa cell S-100 was immunodepleted as described in the Example 10. In FIG. 7A, 10 μl aliquots of HeLa S-100 (50 μg) (lanes 1 and 2), or 10 μl aliquots of HeLa S-100 immunodepleted of cytochrome c (lanes 3 and 4), or 10 μl of HeLa S-100 immunodepleted of cytochrome c supplemented with 0.2 μg Apaf-2 purified through the Mono S column (H) (lanes 5 and 6), bovine heart cytochrome c (B) (lanes 7 and 8), or rat liver cytochrome c (R) (lanes 9 and 10), were incubated with aliquots of 3 μl in vitro translated, ^35S-labeled CPP32 in the absence (lanes 1, 3, 5, 7, 9) or presence (lanes 2, 4, 6, 8, 10) of 1 mM dATP at 30° C. for 1 hr in a final reaction volume of 20 μl of buffer A. Samples were subjected to SDS-PAGE and transferred to a nitrocellulose filter which were then exposed to film for 16 hr at room temperature. In FIG. 7B, HeLa S-100 (50 μg) immunodepleted of cytochrome c were reconstituted with the indicated amount of Apaf-2 (purified through Mono S column step) in a CPP32 cleavage reaction as described in FIG. 7A. The cleaved products (p20) were quantified in a Fuji-1000 phosphorimager machine and plotted in comparison with that generated by HeLa S-100. In FIG. 7C, aliquots of 50 μl of HeLa S-100 (250 μg) (lanes 1 and 2), or 50 μl of HeLa S-100 immunodepleted of cytochrome c (lanes 3 and 4), or 50 μl of HeLa S-100 immunodepleted of cytochrome c supplemented with 1 μg apaf-2 purified through the Mono S column (H) (lanes 5 and 6), bovine heart cytochrome c (B) (lanes 7 and 8), or rat liver cytochrome c (R) (lanes 9 and 10), were incubated with aliquots of 6 μl hamster liver nuclei in the absence (lanes 1, 3, 5, 7, 9) or presence (lanes 2, 4, 6, 8, 10) of 1 mM dATP at 37° C. for 2 hr in a final reaction volume of 60 μl. The DNA were isolated as described in the Examples, analyzed on 2% agarose gel electrophoresis, and the DNA was visualized by ethidium bromide staining. In FIG. 7D, DNA fragmentation assays were carried out as in FIG. 7C using HeLa S-100 immunodepleted of cytochrome c alone (a,b) or supplemented with Apaf-2 purified through Mono S column step (c,d) in the absence (a,c) or presence of 1 mM dATP (b,d). After 2 hr incubation at 37° C., an aliquot of each reaction (30 μl) was stained with 4′,6′-diamidino-2-phenylindole (DAPI), and observed under a fluorescence microscope with a UV-2A combination filter.
To rule out the possibility that the Apaf-2 activity is due to a minor contaminating protein that co-purified with cytochrome c, an immunodepletion experiment was carried out using a monoclonal antibody against rat cytochrome c. This monoclonal antibody cross-reacts with purified Apaf-2. As shown in FIGS. 7A-7D, HeLa cell S-100 depleted of cytochrome c using the monoclonal anti-cytochrome c antibody lost the dATP-dependent activation of CPP32 and the ability to induce DNA fragmentation in the added nuclei (FIGS. 7A and 7C, lanes 3 and 4). Adding back either the purified Apaf-2 from HeLa cells or the commercial cytochrome c from bovine heart or rat liver to the immunodepleted extracts restored the dATP-dependent activation of CPP32 and DNA fragmentation (FIGS. 7A and 7C, lanes 5-10). The reconstitution of cytochrome c dependent-activation of CPP32 was evident with the addition of 0.01 μg (33 nM) of purified cytochrome c to the cytochrome c-depleted extracts (FIG. 7B).
CPP32 was translated and purified as described above. Aliquot of 3 μl of the in vitro translated CPP32 was incubated with the indicated protein fraction, nucleotides, and 1 mM additional MgCl2 at 30° C. for 1 hour in a final volume of 20 μl of buffer A. At the end of the incubation, 7 μl of 4×SDS sample buffer was added to each reaction. After boiling for 3 min, each sample was subjected to a 15% SDS-polyacrylamide gel electrophoresis (SDS-PAGE). The gel was transferred to a nitrocellulose filter which was subsequently exposed to a Kodak X-OMAT AR X-ray film (Eastman Kodak, Rochester, N.Y.) for 16 hr at room temperature. […]

CPP32 [2] = experiment: Reconstitution of dATP-dependent activation of CPP32 with S-cytosol (sucrose-prepared HeLa cytosol); assay type: biochemical, human; settings: S-cytosol 50 μg supplemented with 0.2 μg, 1 mM dATP
Experimental: On day 0, Hela cells were set up at 5×10^5 cells per 100 mm dish in medium A as described hereinbelow. On day 2, cells were harvested, collected by centrifugation (1000 g, 10 min, 4° C.). After washed once with ice-cold PBS, the cell pellet was suspended in 5 volumes of ice-cold buffer A containing 250 mM sucrose. The cells were disrupted by douncing 3 times in a 5 ml Wheaton douncer with a pestle polished with sand paper. After microcentrifugation for 5 min at 4° C., the supernatants were further centrifuged at 10^5×g for 30 min in a table top ultracentrifuge (Beckman Instruments, Fullerton, Calif.). The resulting supernatants were designated as S-cytosol. Aliquots of S-cytosol (50 μg) alone (lanes 1 and 2), or supplemented with 0.2 μg Apaf-2 purified through the Mono S column (lanes 3 and 4), were incubated with aliquots of 3 μl in vitro translated, ^35S-labeled CPP32 in the absence (lanes 1, 3) or presence (lanes 2, 4) of 1 mM dATP at 30° C. for 1 hr in a final reaction volume of 20 μl of buffer A. Samples were subjected to SDS-PAGE and transferred to a nitrocellulose filter which were then exposed to film for 16 hr at room temperature.
Human cytochrome c is encoded by a single copy nuclear gene [Evans and Scarpulla (1988) Proc. Natl. Acad. Sci. USA 85, 9625-9629] which is translated on cytoplasmic ribosomes as apocytochrome c. […]

[3] = added to cytochrome c-depleted extracts

Apaf-2: 15 kDa factor bound to phosphocellulose column, purified from HeLa S-100, identified as human cytochrome c
restoration of dATP-dependent activation of CPP32 (CPP32 [1]; 0.2 μg added to immunodepleted HeLa S-100, 1 mM dATP): restored
amount at which reconstitution of CPP32 activation was evident (CPP32 [1]; [3]): 0.01 µg
concentration at which reconstitution of CPP32 activation was evident (CPP32 [1]; [3]): 33 nM
recovered control activity (p20 cleaved product vs HeLa S-100) (CPP32 [1]; addition of 0.3 μg): more than 100%
dATP-dependent activation of CPP32 in S-cytosol (CPP32 [2]): incapable of initiating the dATP-dependent activation of CPP32 (lanes 1 and 2) unless purified cytochrome c was added
